Test results reported in US20140248361A1, “HERBAL EXTRACT COMPOSITION AND A PROCESS THEREOF” (PRASAN SOLUTIONS (INDIA) PVT LTD, priority 2012, published 2014).

Experiments:
[1] = Effect of particle size on antioxidant activity (Rancimat induction time) in sunflower oil; conditions: 200 ppm in sunflower oil; Rancimat 100° C.
Procedure: (§2) Effect of particle size analysis on antioxidant activity is analysed with the help of Rancimat (Metrohm 743) which gives oxidative stability index based on the induction time (h). Rancimat analysis is carried out at two different temperature in order to set relationship between induction time and temperature of the studies.
(§3) In this, we have analyzed the particle size of samples with the help of Particle Size Analyzer (Microtrac, S3500) and its antioxidant activity with the help of Rancimat (Metrohm 743).

[2] = Peroxide value of palm oil on storage
Procedure: (§4) The shelf life of oil is studied by carrying out chemical analysis, which include studying peroxide value (represents extent of primary oxidation), Para-anisidine value (represents extent of secondary oxidation) and totox value (reflects total oxidation of oil). These parameters are determined for 1 kg of untreated oil and treated oil at every 15 days interval for samples stored at ambient temperature and at every 7 days interval for samples stored at 50° C. The treated oil being, the oil upon addition of 200 ppm of TBHQ (sample-A), 200 ppm of BHA (sample-B), 200 ppm and 500 ppm of pulverized green tea extract with 90% polyphenol (sample-C), 200 ppm and 500 ppm of rosemary extract (sample-D), 200 ppm and 500 ppm of green tea extract after cryogenic grinding (sample-E), 200 ppm and 500 ppm of crude green tea extract (sample-F) and PRESOL at 200 ppm and 500 ppm. The untreated oil is the control sample without any antioxidant.
(§5) The threshold limit for per oxide value under which oil can be used for safe consumption is 10 meq of O2/Kg oil. Similarly, the threshold limit of para-anisidine value and Totox value is 10 and 30, respectively.

[3] = Oil stability index (Rancimat) of sunflower oil; conditions: 200 ppm
Procedure: (§6) As used herein, ‘Oil Stability Index (OSI)’ is an American Oil Chemists Society (AOCS) approved method that determines the relative resistance of fat and oil samples to oxidation, which is defined by the following equation—
(§7) The oil stability index is determined using the Metrohm's Rancimat (Metrohm 743 Rancimat).
4.0 g of sunflower oil is weighed into the reaction vessel. The reaction vessel filled with oil is placed in a heating block. The temperature of the block is maintained at 80° C., 100° C. and 120° C., respectively. The oil is heated at the said temperatures, followed by passing air at a flow rate of 20 L/h. Flowing of air through the oil produces peroxides during primary oxidation and organic acids having low molecular weight, aldehydes and ketones with typical rancid odor during the secondary oxidation phase. These compounds are conveyed by the air flow into measurement vessel containing distilled water where conductivity is being checked continuously by sensor.

[4] = Effect of particle size on antioxidant activity (Rancimat induction time) in palm oil; conditions: 200 ppm in palm oil; Rancimat 120° C.
Procedure: as §2, §3

[5] = Totox value of palm oil on storage; conditions: for days after which Totox value crosses threshold limit: threshold 30
Procedure: as §4, §5

[6] = Oil stability index (Rancimat) of apricot oil; conditions: 200 ppm; for Induction Time at 200 ppm: in h
Procedure: as §6, §7
4.0 g of apricot oil is weighed into the reaction vessel. The reaction vessel filled with oil is placed in a heating block. The temperature of the block is maintained at 100° C., 120° C. and 140° C., respectively. The oil is heated at the said temperatures, followed by passing air at a flow rate of 20 L/h. Flowing of air through the oil produces peroxides during primary oxidation and organic acids having low molecular weight, aldehydes and ketones with typical rancid odor during the secondary oxidation phase. These compounds are conveyed by the air flow into measurement vessel containing distilled water where conductivity is being checked continuously by sensor.
The above experiment is repeated by adding 200 ppm of BHA (sample-B), 200 ppm of BHT (sample-B1), 500 ppm of alpha tocopherol (sample-B2) and PRESOL at 200 ppm, 500 ppm and 1000 ppm, respectively to apricot oil.

[7] = Oil stability index (Rancimat) of palm oil; conditions: 200 ppm
Procedure: as §6, §7
4.0 g of palm oil is weighed into the reaction vessel. The reaction vessel filled with oil is placed in a heating block. The temperature of the block is maintained at 100° C., 120° C. and 140° C., respectively. The oil is heated at the said temperatures, followed by passing air at a flow rate of 20 L/h. Flowing of air through the oil produces peroxides during primary oxidation and organic acids having low molecular weight, aldehydes and ketones with typical rancid odor during the secondary oxidation phase. These compounds are conveyed by the air flow into measurement vessel containing distilled water where conductivity is being checked continuously by sensor.

[8] = Oil stability index (Rancimat) of almond oil; conditions: 200 ppm; for Induction Time: in h
Procedure: as §7
4.0 g of almond oil is weighed into the reaction vessel. The reaction vessel filled with oil is placed in a heating block. The temperature of the block is maintained at 100° C., 120° C. and 140° C., respectively. The oil is heated at the said temperatures, followed by passing air at a flow rate of 20 L/h. […] These compounds are conveyed by the air flow into measurement vessel containing distilled water where conductivity is being checked continuously by sensor.
The above experiment is repeated by adding 200 ppm of BHA (sample-B), 200 ppm of BHT (sample-B1), 500 ppm of alpha tocopherol (sample-B2) and PRESOL at 200 ppm, 500 ppm and 1000 ppm, respectively to almond oil. From the above experiment, oxidative stability index of untreated oil (control) and treated oil is calculated and the below table illustrates the induction time and the obtained oxidative stability.

[9] = Para-anisidine value of palm oil on storage
Procedure: as §4, §5

[10] = Frying cycle analysis of sunflower oil (total polar compounds); conditions: for Total Polar compounds of sunflower oil: 200 ppm
Procedure: (§1) Palm oil and sunflower oil with antioxidants added to it are obtained from a local refinery. Frying studies are carried out with control oil and by adding TBHQ (Sample A), BHA (Sample B), GT Pulverized (Sample C), ROS (Sample D), GT Cryo grinded (Sample E), GT Crude Extract (Sample F) and PRESOL, respectively to the oils. Experiments are carried out a concentration of 200 ppm and 500 ppm. Fresh potatoes of less reduced sugar content variety are used throughout the experiment which is purchased form a local supermarket. Oil samples are withdrawn from the fryer at the end of every day and stored at −4° C. until it is tested for quality parameters viz, total polar compounds. Polar compounds present in oil and fats are measured by column chromatography using standard method, ES ISO 8420:2012.

Shelf life of canola oil = conditions: 200 ppm
Procedure: D. Determination of Shelf Life of Canola Oil in the Presence of PRESOL • Shelf life of canola oil is analyzed upon adding 200 ppm of TBHQ (sample-A), BHA (sample-B), green tea extract with 90% polyphenol (sample-C), rosemary extract (sample-D), green tea extract after cryogenic grinding (sample-E), and PRESOL, respectively to canola oil.

[11] = Frying cycle analysis of palm oil (total polar compounds); conditions: palm oil
Procedure: as §1

[12] = Estimation of shelf life of sunflower oil (Rancimat temperature extrapolation); conditions: 200 ppm
Procedure: (§8) This is an aid for estimating the shelf life of oils and fats. The extrapolation makes use of the relationship between the measured induction time and the temperature given by van't Hoff's law. Several measurements are made at different temperatures and then extrapolated to the storage temperature. The values so obtained allow estimation of the storage stability of the oil or fat containing PRESOL.
(§9) The shelf life is calculated using Rancimat shelf life calculator.

[13] = Estimation of shelf life of palm oil (Rancimat temperature extrapolation); conditions: 200 ppm
Procedure: as §8, §9

[14] = ambient temperature, day 0, 200 ppm
[15] = ambient temperature, day 15, 200 ppm
[16] = ambient temperature, day 30, 200 ppm
[17] = ambient temperature, day 45, 200 ppm
[18] = ambient temperature, day 60, 200 ppm
[19] = ambient temperature, day 75, 200 ppm
[20] = ambient temperature, day 90, 200 ppm
[21] = ambient temperature, day 105, 200 ppm
[22] = ambient temperature, day 120, 200 ppm
[23] = ambient temperature, day 135, 200 ppm
[24] = ambient temperature, day 150, 200 ppm
[25] = ambient temperature, day 165, 200 ppm
[26] = ambient temperature, day 180, 200 ppm

With `COc1ccc(O)c(C(C)(C)C)c1` [Sample B, butylated hydroxyanisole] the “Induction Period (h) of SFO 100° C.” value [1] was 13.33 h, the Peroxide value ([2]; 50° C., day 0, 200 ppm) was 0.482 and the Peroxide value ([2]; 50° C., day 7, 200 ppm) was 4.735. For the same compound, the Peroxide value ([2]; 50° C., day 15, 200 ppm) was 9.973, the Peroxide value ([2]; 50° C., day 22, 200 ppm) was 13.062 and the Peroxide value ([2]; 50° C., day 30, 200 ppm) was 16.45. The Peroxide value ([2]; 50° C., day 37, 200 ppm) was 35.595, the Peroxide value ([2]; 50° C., day 45, 200 ppm) was 60.884 and the Peroxide value ([2]; 50° C., day 52, 200 ppm) was 51.15. It also gave a Peroxide value ([2]; 50° C., day 60, 200 ppm) of 42.269, a Peroxide value ([2]; 50° C., day 67, 200 ppm) of 34.974 and a Peroxide value ([2]; 50° C., day 75, 200 ppm) of 25.576. It also gave a Peroxide value ([2]; 50° C., day 82, 200 ppm) of 11.31, a Peroxide value ([2]; 50° C., day 90, 200 ppm) of 15.231 and a Peroxide value [2, 14] of 0.465. It also gave a Peroxide value [2, 15] of 0.868, a Peroxide value [2, 16] of 1.691 and a Peroxide value [2, 17] of 2.684. It also gave a Peroxide value [2, 18] of 4.034, a Peroxide value [2, 19] of 4.748 and a Peroxide value [2, 20] of 5.034. It also gave a Peroxide value [2, 21] of 5.316, a Peroxide value [2, 22] of 6.307 and a Peroxide value [2, 23] of 7.887. It also gave a Peroxide value [2, 24] of 8.617, a Peroxide value [2, 25] of 11.307 and a Peroxide value [2, 26] of 12.75. For the same compound, the “days after which peroxide value crosses threshold limit” value ([2]; ambient temperature, threshold 10 meq of O2/Kg oil) was 165 days, the “Induction Time” value ([3]; 80° C.) was 50.39 h and the “Oxidative Stability Index (OSI)” value ([3]; 80° C.) was 1.38. The “Induction Time” value ([3]; 100° C.) was 13.33 h, the “Oxidative Stability Index (OSI)” value ([3]; 100° C.) was 1.43 and the “Induction Time” value ([3]; 120° C.) was 2.64 h. For the same compound, the “Oxidative Stability Index (OSI)” value ([3]; 120° C.) was 1.12, the “Induction Period (h) of PO at 120° C.” value [4] was 9.88 h and the “days after which Totox value crosses threshold limit” value ([5]; 50° C.) was 180 days. The Totox value [5, 14] was 3.497, the Totox value [5, 15] was 4.338 and the Totox value [5, 16] was 6.561. It also gave a Totox value [5, 17] of 8.268, a Totox value [5, 18] of 10.827 and a Totox value [5, 19] of 12.449. For the same compound, the Totox value [5, 20] was 13.181, the Totox value [5, 21] was 14.088 and the Totox value [5, 22] was 16.114. It also gave a Totox value [5, 23] of 19.368, a Totox value [5, 24] of 20.994 and a Totox value [5, 25] of 26.783. For the same compound, the Totox value [5, 26] was 29.993, the “days after which Totox value crosses threshold limit” value ([5]; ambient temperature) was 180 days and the “Oxidative Stability Index (OSI)” value ([6]; 100° C.) was 1.08. The “Induction Time at 200 ppm” value ([6]; 100° C.) was 29.16, the “Oxidative Stability Index (OSI)” value ([6]; 120° C.) was 1.13 and the “Induction Time at 200 ppm” value ([6]; 120° C.) was 6.66. For the same compound, the “Oxidative Stability Index (OSI)” value ([6]; 140° C.) was 1.06, the “Induction Time at 200 ppm” value ([6]; 140° C.) was 1.57 and the “Induction Time” value ([7]; 100° C.) was 43.33 h. For the same compound, the “Oxidative Stability Index (OSI)” value ([7]; 100° C.) was 1.04, the “Induction Time” value ([7]; 120° C.) was 9.88 h and the “Oxidative Stability Index (OSI)” value ([7]; 120° C.) was 1.02. The “Induction Time” value ([7]; 140° C.) was 2.51 h, the “Oxidative Stability Index (OSI)” value ([7]; 140° C.) was 1.02 and the “Oxidative Stability Index (OSI)” value ([8]; 100° C.) was 1.14. The “Induction Time” value ([8]; 100° C.) was 25.14, the “Oxidative Stability Index (OSI)” value ([8]; 120° C.) was 1.21 and the “Induction Time” value ([8]; 120° C.) was 6.11. The “Oxidative Stability Index (OSI)” value ([8]; 140° C.) was 1.11, the “Induction Time” value ([8]; 140° C.) was 1.52 and the Para-anisidine value ([9]; 50° C., day 0, 200 ppm) was 2.69. For the same compound, the Para-anisidine value ([9]; 50° C., day 7, 200 ppm) was 3.186, the Para-anisidine value ([9]; 50° C., day 15, 200 ppm) was 4.011 and the Para-anisidine value ([9]; 50° C., day 22, 200 ppm) was 4.204. It also gave a Para-anisidine value ([9]; 50° C., day 30, 200 ppm) of 5.542, a Para-anisidine value ([9]; 50° C., day 37, 200 ppm) of 5.617 and a Para-anisidine value ([9]; 50° C., day 45, 200 ppm) of 5.794. It also gave a Para-anisidine value ([9]; 50° C., day 52, 200 ppm) of 5.827, a Para-anisidine value ([9]; 50° C., day 60, 200 ppm) of 6.165 and a Para-anisidine value ([9]; 50° C., day 67, 200 ppm) of 6.22. The Para-anisidine value ([9]; 50° C., day 75, 200 ppm) was 6.269, the Para-anisidine value ([9]; 50° C., day 82, 200 ppm) was 6.503 and the Para-anisidine value ([9]; 50° C., day 90, 200 ppm) was 6.657. It also gave a Para-anisidine value [9, 14] of 2.566, a Para-anisidine value [9, 15] of 2.602 and a Para-anisidine value [9, 16] of 3.18. It also gave a Para-anisidine value [9, 17] of 2.899, a Para-anisidine value [9, 18] of 2.759 and a Para-anisidine value [9, 19] of 2.952. The Para-anisidine value [9, 20] was 3.113, the Para-anisidine value [9, 21] was 3.455 and the Para-anisidine value [9, 22] was 3.499. For the same compound, the Para-anisidine value [9, 23] was 3.593, the Para-anisidine value [9, 24] was 3.759 and the Para-anisidine value [9, 25] was 4.169. For the same compound, the Para-anisidine value [9, 26] was 4.493, the “Total Polar compounds of sunflower oil” value ([10]; frying cycle 0) was 3.515 and the “Total Polar compounds of sunflower oil” value ([10]; frying cycle 8) was 6.958. The “Total Polar compounds of sunflower oil” value ([10]; frying cycle 16) was 14.124, the “Total Polar compounds of sunflower oil” value ([10]; frying cycle 24) was 20.105 and the “Total Polar compounds of sunflower oil” value ([10]; frying cycle 32) was 26.085. The “Total Polar compounds of sunflower oil” value ([10]; frying cycle 40) was 31.692, the “frying cycle after which threshold limit for total polar compounds is crossed” value ([10]; sunflower oil) was 40 cycle and the “Shelf Life (No. Of Days)” value (Shelf life of canola oil) was 37 days. The “frying cycle after which threshold limit for total polar compounds is crossed” value [11] was 40 cycle, the “Shelf Life (days) at 30° C.” value [12] was 87.2 days and the “Shelf Life (days) at 30° C.” value [13] was 260.9 days.
